{"source": "patent US20230223113A1", "about": "“Methods and Systems for Rapid Antimicrobial Susceptibility Tests” (The Regents of the University of California, priority 2020, published 2023)", "key": {"[1]": {"system": "Pseudomonas aeruginosa (strain PA14 wild type)", "assay": "Dose-response growth curves (OD600 after 24 h) to identify the minimum inhibitory concentration", "format": "cell-based", "details": "for MIC: Pseudomonas aeruginosa, P. aeruginosa PA14, the stated concentration is 'just below' the MIC", "description": "(§1) Optical density at 600 nm (OD600) to identify the minimum inhibitory concentration (MIC) of A) carbenicillin, B) rifampicin, and C) gentamicin for Pseudomonas aeruginosa, and D) gentamicin for Escherichia coli in accordance with an embodiment is illustrated in FIGS. 5A-5D. The P. aeruginosa strain, PA14 used in some embodiments has differing susceptibility to carbenicillin [+C] and rifampicin [+R]. Several embodiments refer to the antibiotic treatments that are performed with 50 μg/mL and 400 μg/mL of carbenicillin and rifampicin, respectively as the AST dataset. These concentrations are just below the respective minimum inhibitory concentrations (MICs) for these antibiotics in P. aeruginosa, as shown in FIGS. 5A and 5B. OD600 of a P. aeruginosa cell culture at indicated growth times after adjustment to OD at 0.5 at 0 h, A) without antibiotic treatment, B) with 50 μg/mL carbenicillin introduced at 0 h, and C) with 400 μg/mL rifampicin introduced at 0 h in accordance with an embodiment of the invention is illustrated in FIGS. 6A-6C.\nPseudomonas aeruginosa (strain PA14 wild type) and Escherichia coli (strain MC4100, K-12, F-araD139Δ(argF-lac)U169 rspL150 relA1 fIbB5301 fruA25 deoC1 ptsF25) cultures were obtained by first streaking from a frozen culture stock onto LB Lennox agar (IBI Scientific) plates and incubated at 37° C. for 24 h. Individual colonies from these plates were used to inoculate 100 mL of LB in triplicate, and subsequently grown for 18 h at 37° C. and shaking at 230 rpm. The 18 h cultures were centrifuged at 5000 rpm for 5 minutes, then resuspended in fresh LB to reach an optical density at 600 nm (OD600) of 0.50 as measured by a BioChrom Colourwave CO7500 Colorimeter.\nDose-Response Curves: Carbenicillin disodium salt, gentamicin sulfate, and rifampicin stock solutions were prepared to a final concentration of 10 mg/mL in water for the former two and 20% (v/v) DMSO/H2O for the latter. These stock solutions were added into 180 μL of E. coli or P. aeruginosa resuspension in a 96-well plate such that 9 separate 10-fold dilutions of each antibiotic starting at 1000 μg/mL were achieved. Vehicle controls using pure water for carbenicillin and gentamicin and 20% (v/v) DMSO/H2O for rifampicin were also created in the same 96-well plate. These plates were then incubated at 37° C. for 24 h with 230 rpm shaking, after which OD600 measurements were taken with a SpectraMax M2 Plate Reader."}, "[2]": {"system": "P. aeruginosa cell culture", "assay": "OD600 of cell culture over time of antibiotic exposure after adjustment to OD 0.5", "format": "cell-based, Pseudomonas aeruginosa", "details": "50 μg/mL carbenicillin, about 2 hour exposure", "description": "as §1, with “OD600 of a P. aeruginosa cell culture at indicated growth times after adjustment to OD at 0.5 at 0 h, A) without antibiotic treatment, B) with 50 μg/mL carbenicillin introduced at 0 h, and C) with 400 μg/mL rifampicin introduced at 0 h in accordance with an embodiment of the invention is illustrated in FIGS. 6A-6C.” left out\nPseudomonas aeruginosa (strain PA14 wild type) and Escherichia coli (strain MC4100, K-12, F-araD139Δ(argF-lac)U169 rspL150 relA1 fIbB5301 fruA25 deoC1 ptsF25) cultures were obtained by first streaking from a frozen culture stock onto LB Lennox agar (IBI Scientific) plates and incubated at 37° C. for 24 h. […] The 18 h cultures were centrifuged at 5000 rpm for 5 minutes, then resuspended in fresh LB to reach an optical density at 600 nm (OD600) of 0.50 as measured by a BioChrom Colourwave CO7500 Colorimeter. […]"}, "E. coli lysate": {"system": "E. coli lysate", "assay": "SERS spectra of cell lysate after antibiotic exposure, VAE latent space analysis", "format": "cell-based, Escherichia coli", "description": "Many embodiments provide VAE performance on differentiating spectra from multiple bacterial species, a different antibiotic, time points, and dosages. SERS spectra from cellular lysate with varying dose and temporal response of P. aeruginosa and E. coli when exposed to gentamicin are analyzed similarly as the AST dataset in several embodiments. When analyzing the SERS spectra from E. coli and P. aeruginosa with the VAE method, differentiation of P. aeruginosa lysate data at concentrations at about 0.1 μg/mL, an order of magnitude below the MIC, can be observed in accordance with some embodiments. FIG. 9A illustrates VAE latent space analysis of SERS spectra of dose response of P. aeruginosa with analysis of 0, 0.1, 0.5, 1, and 10 μg/mL gentamicin dosed lysate respectively in accordance with an embodiment. In several embodiments, lysate from P. aeruginosa exposed to 10 μg/mL gentamicin (10×MIC) can be analyzed with VAE method and differentiated from control data in the VAE space at about 20 minute after initial exposure. The short temporal response time in accordance with some embodiments is much earlier than reported 2 hour response time for SERS AST. FIG. 9B illustrates VAE latent spaces of temporal response of P. aeruginosa with lysate processed after 0, 5, 10, 20, and 40 minutes of 10 μg/mL gentamicin dosage respectively in accordance with an embodiment. […]"}, "P. aeruginosa lysate": {"system": "P. aeruginosa lysate", "assay": "SERS spectra of cell lysate after antibiotic exposure, VAE latent space analysis", "format": "cell-based, Pseudomonas aeruginosa", "description": "The VAE space from analysis of the AST dataset in accordance with many embodiments provide clustering of the different treatment classes. VAE space of AST spectra from untreated [−−] P. aeruginosa lysate (0.5 h/2 h), 50 μg/mL carbenicillin treated [+C] P. aeruginosa lysate (0.5 h/2 h), 400 μg/mL rifampicin treated [+R] P. aeruginosa lysate (0.5 h/2 h) in accordance with an embodiment of the invention is illustrated in FIG. 7A. […] Some embodiments provide that larger relative VAE 1 values can be observed for 30 minute treatment times for all treatment classes as compared to 2 hour exposure. This is consistent with OD600 measurements indicating cell recovery after 2 hour in FIGS. 6A-6C.\nMany embodiments provide VAE performance on differentiating spectra from multiple bacterial species, a different antibiotic, time points, and dosages. SERS spectra from cellular lysate with varying dose and temporal response of P. aeruginosa and E. coli when exposed to gentamicin are analyzed similarly as the AST dataset in several embodiments. When analyzing the SERS spectra from E. coli and P. aeruginosa with the VAE method, differentiation of P. aeruginosa lysate data at concentrations at about 0.1 μg/mL, an order of magnitude below the MIC, can be observed in accordance with some embodiments. […]"}}, "note": "Where a name gives a salt, the structure may show the parent alone.", "data": [{"compound": "CC1(C)S[C@@H]2[C@H](NC(=O)C(C(=O)O)c3ccccc3)C(=O)N2[C@H]1C(=O)O", "note": "(stereo partly drawn) [carbenicillin, Carbenicillin disodium salt]", "values": [{"measurement": "MIC", "setting": "[1]", "result": "> 50", "unit": "µg/mL"}, {"measurement": "growth inhibition over the time of exposure (OD600)", "setting": "[2]", "result": "does not exhibit any significant growth inhibition"}]}, {"compound": "CO[C@H]1/C=C/O[C@@]2(C)Oc3c(C)c(O)c4c(O)c(c(/C=N/N5CCN(C)CC5)c(O)c4c3C2=O)NC(=O)/C(C)=C\\C=C\\[C@H](C)[C@H](O)[C@@H](C)[C@@H](O)[C@@H](C)[C@H](OC(C)=O)[C@@H]1C", "note": "[rifampicin]", "values": [{"measurement": "MIC", "setting": "[1]", "result": "> 400", "unit": "µg/mL"}]}, {"compound": "gentamicin sulfate", "values": [{"measurement": "dose as a multiple of the MIC", "setting": "[1]; 10 μg/mL gentamicin, P. aeruginosa", "result": 10, "unit": "×MIC"}, {"measurement": "resistance of P. aeruginosa (from growth curves, FIGS. 5A-5D)", "setting": "[1]; P. aeruginosa", "result": "evident resistance"}, {"measurement": "time after initial exposure at which discernable clustering appears in VAE space", "setting": "E. coli lysate; 10 μg/mL gentamicin", "result": "about 10 minute"}, {"measurement": "antibiotic concentration at which lysate data are differentiated from control treatment in VAE space", "setting": "E. coli lysate; gentamicin dose response 0, 0.1, 0.5, 1, 10 μg/mL", "result": "≤ 0.1", "unit": "µg/mL"}, {"measurement": "time after initial exposure at which lysate is differentiated from control in VAE space", "setting": "P. aeruginosa lysate; 10 μg/mL gentamicin", "result": "about 20 minute"}, {"measurement": "antibiotic concentration at which lysate data are differentiated from control in VAE space", "setting": "P. aeruginosa lysate; gentamicin dose response 0, 0.1, 0.5, 1, 10 μg/mL, an order of magnitude below the MIC", "result": "about 0.1 μg/mL"}]}]}
